Patent publication US20250304609A1, “POLYMORPHIC FORM OF CHALCONE GLYCOSIDE COMPOUND, AND PREPARATION METHOD AND APPLICATION THEREOF” (ZHEJIANG YONGNING PHARMACEUTICAL CO., LTD., priority 2022, published 2025)
Several values for one entry are separate records, joined by “and”; a condition that tells them apart may be missing. Identical values can stand only once.

Assays:
[1] = system: cerebral ischemia-reperfusion rat models; experiment: Cerebral ischemia-reperfusion (MCAO) rat model, different doses of YN17; format: in vivo, rats; conditions: for Percentage of whole brain tissue infarction (%): 24 h, TTC staining, model 17.61 ± 7.45; for Percentage of whole brain tissue infarction (%) / Symptom score: Mean ± SD; for Symptom score: 24 h after administration, 0-5 points, model 3.3 ± 0.7; for content of GSH-px in serum / content of SOD in serum: 24 h after modeling, p<0.001
Experimental: Establishment of cerebral ischemia-reperfusion rat models. Rats were anesthetized with pentobarbital sodium (45 mg/kg), the neck skin was prepared, the surgical skin was disinfected with iodophor, the neck skin was cut in the middle, the neck muscles were separated, and the left common carotid artery (CCA) was separated until the branches of the internal carotid artery (ICA) and external carotid artery (ECA) were exposed. The proximal end of the common carotid artery was ligated, the distal end of the common carotid artery was clamped with an artery clip, an incision was made between the two ligated ends of the common carotid artery, the MCAO suture was inserted, and the suture was loosely ligated to the common carotid artery. The MCAO suture was inserted into the internal carotid artery, so that the suture reached the branches of the internal carotid artery to the middle cerebral artery (MCA), blocking the blood supply of the MCA and causing ischemia, the MCAO suture was fixed, and the surgical incision was sutured. After 1 h of ischemia, the MCAO suture was withdrawn into the common carotid artery to restore blood supply to the middle cerebral artery.
Drug administration. After the surgery, the rats were immediately injected with YN17 (5 mg/kg, 10 mg/kg and 20 mg/kg) via the tail vein, while the positive control group was injected with 3 mg/kg of edaravone via the tail vein. The rats were euthanized under anesthesia 24 hours after drug administration.
Animal neurobehavioral assessment. 24 hours after administration, the activity of the rats after landing was observed, and the behavior disorders of the rats were scored. The scoring method was as follows: • 0 points: no loss of neurological function and normal activity; • 1 point: failure to fully extend the left forepaw on the opposite side of the lesion; • 2 points: failure of the paralyzed side to resist the thrust from the opposite side; • 3 points: circling to the left side when crawling (tail-chasing sign); • 4 points: falling to the paralyzed side when shaking or walking; and • 5 points: trance or loss of consciousness.
Determination of the extent of cerebral infarction. The rats were euthanized under anesthesia 24 hours after drug administration. The brain was removed and rinsed with normal saline at 4° C. The brain was frozen at −80° C. for 10 min, and coronal slices with a thickness of 2 mm were cut from posterior to anterior, incubated in a 1% TTC solution for 10 min at 37° C., and fixed with formalin overnight after staining. The photos of the brain slices were taken and saved. The area of each brain slice and the area of the infarcted area were measured by Image Pro software, and the percentage of the area of focuses of infarct to the total area was calculated.

[2] = Stability tests (accelerated and long-term) of salt and crystal forms; format: physicochemical; conditions: for Relevant substance, Single impurity / Relevant substance, Total impurities / Content determination: HPLC; for Content determination: content of C27H32O16; for pH: solution 5 mg per 1 ml in water; for Calcium element: ICP-MS
Experimental: The crystal form A for the stability data in the following table is prepared by the method of Example 1. The intermediate was adopted, water was used as a system, calcium carbonate was added for reaction, the solution was filtered and then allowed to stand for crystallization, and subjected to suction filtration, and the filter cake was washed with water and dried by suction, and dried under reduced pressure at 30° C. for 4-6 hours to obtain the crystal form A.
For stability tests and inspection methods, please see the attached stability solutions and quality standards.
[Character] Ocular estimate method: this sample was a yellow powder.
[Examination] PH value: this sample was taken and added with water to make a solution containing 5 mg per 1 ml. According to the pH value determination method (Chinese Pharmacopoeia 2020 Edition Fourth General Rule 0631), the pH value should be 5.0-7.0.
Relevant substances. Determination of relevant substances was performed according to high-performance liquid chromatography (Chinese Pharmacopoeia 2020 Edition Fourth General Rule 0512).
Test sample solution. An appropriate amount of this sample was taken, accurately weighed, dissolved by addition of a diluent, and diluted quantitatively to prepare a solution containing 1.0 mg per 1 ml. The solution was shaken well, filtered through a microporous filter membrane (0.45 μm), and the subsequent filtrate was taken.
Chromatographic conditions. Octadecylsilane bonded silica gel was used as a filler: […] potassium dihydrogen phosphate solution (1.36 g of potassium dihydrogen phosphate was taken into a 1000 mL measuring flask, dissolved by addition of water, and diluted to the scale) was used as a mobile phase A, methanol was used as a mobile phase B, and gradient elution was performed according to the following table; the detection wavelength was 375 nm; and the injection volume was 5 μl.
Limit If there were impurity peaks in the chromatogram of the test sample solution, the area of a single impurity peak shall not be greater than 0.005 times (0.5%) the total peak area, and the sum of the areas of each impurity peak shall not be greater than 0.015 times (1.5%) the total peak area. Chromatographic peaks less than 0.02% of the peak area of the main component can be ignored.
Water content This sample was taken, and according to the method for water content determination (Chinese Pharmacopoeia 2020 Edition Fourth General Rule 0832 First Method), the water content shall not exceed 15.0%.
Calcium element Determination of calcium element was performed according to inductively coupled plasma mass spectrometry (Chinese Pharmacopoeia 2020 Edition Fourth General Rule 0412).
[Content determination] Content determination was performed according to high-performance liquid chromatography (Chinese Pharmacopoeia 2020 Edition Fourth General Rule 0512).
Chromatographic conditions. Octadecylsilane bonded silica gel was used as a filler, methanol-acetonitrile-water-phosphoric acid (26:2:72:0.04) was used as a mobile phase, and detection wavelength was 403 nm; and the injection volume was 10 μl.
Determination method. The test sample solution and comparative sample solution were accurately measured, and injected into the liquid chromatograph separately, and the chromatogram was recorded. The content of C27H32O16 in the test sample was calculated by the peak area according to the external standard method.

[3] = system: cerebral ischemia-reperfusion in rats; experiment: Cerebral ischemia-reperfusion rat model, comparative test of calcium salt YN17 and sodium salt YN17-ST; format: in vivo; conditions: 10 mg/kg tail vein after 1 h ischemia; 24 h; Mean ± SEM; model 51.37 ± 2.66
Experimental: Establishment of cerebral ischemia-reperfusion rat models. Rats were anesthetized with pentobarbital sodium (45 mg/kg), the neck skin was prepared, the surgical skin was disinfected with iodophor, the neck skin was cut in the middle, the neck muscles were separated, and the left common carotid artery (CCA) was separated until the branches of the internal carotid artery (ICA) and external carotid artery (ECA) were exposed. […]
Determination of the extent of cerebral infarction. […] The area of each brain slice and the area of the infarcted area were measured by Image Pro software, and the percentage of the area of focuses of infarct to the total area was calculated.
The models were established and administered according to the similar method described above (YN17 (10 mg/kg) and YN17-ST (10 mg/kg) were injected into the tail vein immediately after blood supply to the middle cerebral artery of the rats was restored, and 5% glucose was injected into the tail vein in the model group. The rats were euthanized under anesthesia 24 hours after drug administration, and the extent of cerebral infarction was measured. The results were as follows: […]

H9c2 cells = experiment: Survival rate of H9c2 cells after oxygen-glucose deprivation/reperfusion (OGD/R); format: cell-based; conditions: 20, 40 and 80 μg/ml
Experimental: (§1) Establishment of cellular oxygen-glucose deprivation/reperfusion (OGD/R) models. […] ischemia was simulated by incubation in a three-gas incubator (95% N2, 5% CO2) using sugar-free culture medium for 8-h culture, followed by transfer to a normal CO2 incubator for 12-h culture to simulate reperfusion.

H9c2 cardiomyocytes [4] = experiment: Hoechst 33342 staining method for cell apoptosis detection (OGD/R); format: cell-based
Experimental: as §1
(§2) Hoechst 33342 staining method for cell apoptosis detection. H9c2 cardiomyocytes were inoculated into a 6-well plate at a density of 2×10^5 cells/well. When the cells were completely adhered to the wall and grew to an appropriate degree of confluence, the cells were divided into a control group, a YN17 80 μg/ml group, a model group, and an OGD/R+80 μg/ml group. In the blank group, 2 mL of a fresh culture medium was added to each well and cultured in a CO2 incubator. The same amount of sugar-free DMEM was added to each well in the model group. After culture in a three-gas incubator for 8 h, the sugar-free DMEM was replaced with a fresh culture medium and transferred to a CO2 incubator for additional 12-h culture. The administration group was pretreated with different concentrations of YN17 for 24 h before OGD/R modeling. […] After the treatment of each group, staining was performed according to the instructions of the Hoechst 33342 staining solution, and the nucleus morphology and fluorescence intensity of each group were observed under a fluorescence microscope.

H9c2 cardiomyocytes [5] = experiment: Flow cytometry (Annexin V-FITC) for cell apoptosis detection (OGD/R); format: cell-based; conditions: OGD/R + 80 μg/ml, 24 h pretreatment; control 7.9%, model 20.3%
Experimental: as §1
as §2, with “group.” for “group. After culture in a three-gas incubator for 8 h, the sugar-free DMEM was replaced with a fresh culture medium and transferred to a CO2 incubator for additional 12-h culture. The administration group was pretreated with different concentrations of YN17 for 24 h before OGD/R modeling.”
Flow cytometry for cell apoptosis detection. […] After the treatment of each group, staining was performed according to the instructions of the Annexin V-FITC cell apoptosis detection kit, and cell apoptosis was detected by a flow cytometer.

[6] = 3 mg/kg tail vein, listed as edaravone
[7] = Accelerated 6 months, 40° C. ± 2° C./75% ± 5% RH
[8] = Long-term 6 months, 25° C. ± 2° C./60% ± 5% RH

SMILES	Character ([2]; 0 months)	Water content ([2]; 0 months)	Relevant substance, Single impurity ([2]; 0 months)	Relevant substance, Total impurities ([2]; 0 months)	Content determination ([2]; 0 months)	pH ([2]; 0 months)	Character [2, 7]	Water content [2, 7]	Relevant substance, Single impurity [2, 7]	Relevant substance, Total impurities [2, 7]	Content determination [2, 7]	pH [2, 7]	Character [2, 8]	Water content [2, 8]	Relevant substance, Single impurity [2, 8]	Relevant substance, Total impurities [2, 8]	Content determination [2, 8]	pH [2, 8]	Percentage of hemispheric tissue infarction (%) [3]	also measured
CC1=NN(c2ccccc2)C(=O)C1 [Edaravone, edaravone]																				Percentage of whole brain tissue infarction (%) ([1]; 3 mg/kg tail vein): 10.58 ± 5.31 %; Percentage of whole brain tissue infarction (%) [1, 6]: significantly inhibit; Symptom score ([1]; 3 mg/kg tail vein): 2.1 ± 1.3; Symptom score [1, 6]: significantly improve; content of GSH-px in serum ([1]; 3 mg/kg): significantly increase; content of SOD in serum ([1]; 3 mg/kg): significantly increase
O=C(C=Cc1ccc(O)cc1)C1=C(O)C(C2OC(CO)C(O)C(O)C2O)=C([O-])C(O)(C2OC(CO)C(O)C(O)C2O)C1=O.[Na+] (stereo not shown) [YN17-ST]	Yellow	2.3%	0.36%	0.95%	95.3%	6.0	Yellow	7.3%	6.41%	9.53%	81.5%	6.8	Yellow	5.7%	1.86%	3.02%	91.7%	6.4	23.35% and 23.35 ± 7.37 %	
O=C(/C=C/c1ccc(O)cc1)C1=C(O)C([C@@H]2O[C@H](CO)[C@@H](O)[C@H](O)[C@H]2O)=C([O-])[C@@](O)([C@@H]2O[C@H](CO)[C@@H](O)[C@H](O)[C@H]2O)C1=O.[Ca+2].[OH-] [YN17, (S)-3,6-dihydroxy-4-((E)-3-(4-hydroxyphenyl)acryloyl)-5-oxo-6-((2R,3R,4S,5S,6R)-3,4,5-trihydroxy-6-(hydroxymethyl)tetrahydro-2H-pyran-2-yl)-2-((2S,3R,4R,5S,6R)-3,4,5-trihydroxy-6-(hydroxymethyl)tetrahydro-2H-pyran-2-yl)cyclohexyl-1,3-diene-1-hydroxycalcium]	Yellow	9.9%	0.25%	0.25%	97.0%	5.9	Yellow	10.1%	0.25%	0.54%	96.5%	5.8	Yellow	10.7%	0.25%	0.32%	96.7%	5.9	20.47% and 20.47 ± 3.56 %	Calcium element ([2]; 0 months): 3.19%; Calcium element [2, 7]: 3.26%; Calcium element [2, 8]: 3.21%; Stability (comparison of salt forms, relevant substances and contents) ([2]; summary of Table 1 and Table 2): very stable; survival rate of cells (H9c2 cells): can improve the survival rate of cells in different degrees; apoptosis characteristics of nuclei without OGD/R (H9c2 cardiomyocytes [4]; 80 μg/ml group without OGD/R): no obvious apoptosis characteristics; number of densely and heavily stained cell nuclei (apoptosis) (H9c2 cardiomyocytes [4]; OGD/R + 80 μg/ml, 24 h pretreatment): significantly reduced; apoptosis rate (H9c2 cardiomyocytes [5]): 13.3%; Symptom score ([1]; 5 mg/kg tail vein): 2.8 ± 1.0; content of GSH-px in serum ([1]; 5 mg/kg, 10 mg/kg and 20 mg/kg): significantly increase; content of SOD in serum ([1]; 10 mg/kg and 20 mg/kg): significantly increase
